Experimental data taken from patent US5210193A, “Piperazine derivatives” (American Cyanamid Company, priority 1990, dated 1993).
In brackets after ≈: the same amount, converted by molar mass.

Columns and labels:
Experiment in all cases: in vitro antibacterial MIC, agar plate dilution
Type in all cases: cell-based
[1] = tested on: Staphylococcus Spp saprophiticus VGH 84-50; conditions: 18 hours, 35° C., read-out: MIC
Outline: (§1)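 Agar plate dilution on Mueller-Hinton agar, inoculum approximately 10^4 CFU per organism applied with a Steers replicator. MIC (mcg/ml) is the lowest compound concentration inhibiting visible growth after 18 hours at 35° C.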

[2] = tested on: Staphylococcus aureus CMC 83-128; conditions: CMC83128, 18 hours, 35° C., read-out: MIC
Outline: as §1

[3] = tested on: Acinetobacter calcoaceticus MOR 84-43; conditions: MOR8443, 18 hours, 35° C., read-out: MIC
Outline: as §1

[4] = tested on: Klebsiella pneumoniae MOR 84-4; conditions: Klebsiella pneumoniae, MOR844, 18 h, 35° C., read-out: MIC
Outline: as §1

O=C(O)c1cn(C2CC2)c2cc(N3CCNC(c4ccco4)C3)c(F)cc2c1=O (stereo not shown) [Example 62, 1-Cyclopropyl-6-fluoro-7-[3-(2-furanvl)-1-piperazinyl]-1,4-dihydro-4-oxo-3-quinolinecarboxylic acid]
MIC [1]: 0.12 µg/mL (≈ 0.302 µM) | MIC [2]: 0.03 µg/mL (≈ 0.0755 µM) | MIC [3]: 0.06 µg/mL (≈ 0.151 µM) | MIC [4]: 0.12 µg/mL (≈ 0.302 µM)
